Key:
EGFR L858R = biological target: T1, EGFR L858R (Homo sapiens, UniProt P00533, L858R); assay: Biochemical EGFR inhibition assay (Caliper mobility shift), EGFR L858R; settings: biochemical Caliper mobility shift assay, EGFR L858R enzyme; read-out: Enz EGFR L858R IC50
T1 construct: purchased SignalChem E10-122BG
Outline: (§1)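 Apparent IC50 from Caliper separation of phospho-peptide from substrate. Conditions: 2.5 µM 5-FAM peptide, 1.0 mM ATP or ATP Km, pH 7.5 HEPES buffer, room temperature, 10–20% conversion, EDTA stop.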

EGFR (d746-750) = biological target: T2, EGFR (d746-750) (Homo sapiens, UniProt P00533, DEL746-750); assay: Biochemical EGFR inhibition assay (Caliper mobility shift), EGFR (d746-750); settings: biochemical Caliper mobility shift assay, EGFR Exon 19-del enzyme; read-out: Enz EGFR Exon 19-del IC50
T2 construct: purchased SignalChem E10-122JG
Outline: as §1

[1] = biological target: intracellular phosphorylation of EGFR (Tyr1068) in PC-9 cells (Homo sapiens, UniProt P00533, DEL746-750); assay: PC-9 pEGFR AlphaLISA assay; assay type: cell-based; settings: 4 hours incubation, read-out: Phos EGFR PC9 IC50
Outline: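 PC-9 cells (EGFR del746-750) in phenol-free DMEM/10% FBS, adhered overnight, then exposed to 10-point 4-fold compound dilutions for 4 h at 37 °C. Lysates assayed for pEGFR Tyr1068 by AlphaLISA SureFire Ultra; IC50 from percent pEGFR inhibition vs log concentration.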

intracellular phosphorylation of EGFR (Tyr1068) in PC-9 cells, sequence (P00533 with tags, fused parts or gaps DEL746-750): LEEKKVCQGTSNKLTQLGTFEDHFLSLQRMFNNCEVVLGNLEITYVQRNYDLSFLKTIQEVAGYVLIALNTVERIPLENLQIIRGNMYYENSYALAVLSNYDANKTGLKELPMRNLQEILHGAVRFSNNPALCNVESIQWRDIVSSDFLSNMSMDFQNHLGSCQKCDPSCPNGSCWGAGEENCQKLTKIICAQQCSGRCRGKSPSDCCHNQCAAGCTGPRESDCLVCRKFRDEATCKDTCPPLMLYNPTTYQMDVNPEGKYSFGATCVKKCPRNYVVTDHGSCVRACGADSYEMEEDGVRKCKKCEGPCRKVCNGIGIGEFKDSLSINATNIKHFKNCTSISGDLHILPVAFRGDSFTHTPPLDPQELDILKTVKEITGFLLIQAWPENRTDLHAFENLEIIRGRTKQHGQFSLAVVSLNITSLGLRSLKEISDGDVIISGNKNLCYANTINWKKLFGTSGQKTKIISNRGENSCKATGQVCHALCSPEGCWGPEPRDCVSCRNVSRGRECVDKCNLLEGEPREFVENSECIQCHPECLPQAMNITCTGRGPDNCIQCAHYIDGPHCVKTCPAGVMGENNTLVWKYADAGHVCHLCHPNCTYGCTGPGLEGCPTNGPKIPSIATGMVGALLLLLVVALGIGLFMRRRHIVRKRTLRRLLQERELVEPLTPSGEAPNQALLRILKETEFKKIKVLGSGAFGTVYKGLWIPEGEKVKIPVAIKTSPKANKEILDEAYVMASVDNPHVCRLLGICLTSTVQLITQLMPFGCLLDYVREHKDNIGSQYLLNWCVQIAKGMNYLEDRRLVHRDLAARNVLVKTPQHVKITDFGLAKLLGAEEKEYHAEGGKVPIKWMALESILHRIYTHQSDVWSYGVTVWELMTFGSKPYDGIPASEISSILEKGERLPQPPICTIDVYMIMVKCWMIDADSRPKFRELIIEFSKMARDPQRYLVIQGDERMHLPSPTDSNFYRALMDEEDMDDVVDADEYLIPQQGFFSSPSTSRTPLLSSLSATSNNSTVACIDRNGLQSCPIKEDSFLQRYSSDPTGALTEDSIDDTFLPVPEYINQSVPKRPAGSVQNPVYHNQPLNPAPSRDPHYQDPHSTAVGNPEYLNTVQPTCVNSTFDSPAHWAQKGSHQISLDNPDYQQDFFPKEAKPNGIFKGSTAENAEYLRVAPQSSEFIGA
T2 sequence (P00533 with tags, fused parts or gaps DEL746-750 limits assumed): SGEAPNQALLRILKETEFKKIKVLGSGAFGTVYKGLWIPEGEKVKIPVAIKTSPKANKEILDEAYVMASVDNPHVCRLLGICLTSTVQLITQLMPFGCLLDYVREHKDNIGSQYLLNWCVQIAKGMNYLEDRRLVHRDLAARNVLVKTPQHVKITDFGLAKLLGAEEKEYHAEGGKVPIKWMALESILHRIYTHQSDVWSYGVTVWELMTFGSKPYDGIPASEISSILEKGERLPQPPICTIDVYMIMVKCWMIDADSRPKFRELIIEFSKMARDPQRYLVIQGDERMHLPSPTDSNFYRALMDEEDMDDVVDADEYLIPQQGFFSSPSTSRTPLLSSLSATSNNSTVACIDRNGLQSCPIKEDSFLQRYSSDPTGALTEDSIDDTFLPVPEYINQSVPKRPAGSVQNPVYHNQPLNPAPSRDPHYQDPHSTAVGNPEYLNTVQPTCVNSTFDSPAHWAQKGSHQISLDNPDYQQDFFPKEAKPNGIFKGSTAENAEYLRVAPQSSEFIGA
T1 sequence (P00533 25-1210 L858R): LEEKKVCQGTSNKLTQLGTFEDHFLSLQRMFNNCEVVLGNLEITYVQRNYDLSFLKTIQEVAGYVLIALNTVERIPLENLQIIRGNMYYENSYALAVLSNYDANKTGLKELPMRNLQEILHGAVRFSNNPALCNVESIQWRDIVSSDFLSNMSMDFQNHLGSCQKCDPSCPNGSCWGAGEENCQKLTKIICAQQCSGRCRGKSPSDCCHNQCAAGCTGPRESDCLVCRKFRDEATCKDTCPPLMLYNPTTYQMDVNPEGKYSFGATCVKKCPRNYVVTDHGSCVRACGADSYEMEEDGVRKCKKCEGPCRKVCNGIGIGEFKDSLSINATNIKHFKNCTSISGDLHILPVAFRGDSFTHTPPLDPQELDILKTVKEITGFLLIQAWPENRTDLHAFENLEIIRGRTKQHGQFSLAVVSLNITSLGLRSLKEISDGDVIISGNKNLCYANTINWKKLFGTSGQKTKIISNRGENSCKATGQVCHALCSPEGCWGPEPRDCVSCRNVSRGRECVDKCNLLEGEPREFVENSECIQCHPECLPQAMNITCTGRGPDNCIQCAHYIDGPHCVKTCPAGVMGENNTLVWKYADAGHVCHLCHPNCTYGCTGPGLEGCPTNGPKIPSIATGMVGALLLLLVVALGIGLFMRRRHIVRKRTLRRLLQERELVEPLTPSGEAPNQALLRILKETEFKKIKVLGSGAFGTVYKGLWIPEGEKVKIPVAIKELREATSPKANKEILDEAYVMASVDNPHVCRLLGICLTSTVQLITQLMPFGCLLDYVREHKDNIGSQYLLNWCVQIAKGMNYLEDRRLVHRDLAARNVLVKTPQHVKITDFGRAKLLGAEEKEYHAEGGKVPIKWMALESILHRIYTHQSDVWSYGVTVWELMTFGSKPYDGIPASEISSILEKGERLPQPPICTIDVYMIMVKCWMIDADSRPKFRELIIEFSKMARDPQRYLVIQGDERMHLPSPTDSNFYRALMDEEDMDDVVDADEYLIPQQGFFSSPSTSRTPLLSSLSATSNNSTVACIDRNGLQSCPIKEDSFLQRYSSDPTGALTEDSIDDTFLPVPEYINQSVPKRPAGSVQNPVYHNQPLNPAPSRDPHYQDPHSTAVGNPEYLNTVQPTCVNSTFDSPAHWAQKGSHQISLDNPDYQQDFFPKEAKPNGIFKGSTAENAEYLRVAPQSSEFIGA

Row | Compound | IC50 (EGFR L858R) [nM] | IC50 (EGFR (d746-750)) [nM] | IC50 [1] [nM]
1 | C[C@H](Oc1cc(-c2cnn(C)c2)cc2ncnc(Nc3ccc4ncsc4c3F)c12)C1COC1 (single isomer, unassigned) [Example 71, (S)-7-fluoro-N-(7-(1-methyl-1H-pyrazol-4-yl)-5-(1-(oxetan-3-yl)ethoxy)quinazolin-4-yl)benzo[d]thiazol-6-amine or (R)-7-fluoro-N-(7-(1-methyl-1H-pyrazol-4-yl)-5-(1-(oxetan-3-yl)ethoxy)quinazolin-4-yl)benzo[d]thiazol-6-amine] | ≤ 10 | ≤ 10 | ≤ 10
2 | Cn1cc(-c2cc(OCCO)c3c(Nc4ccc5ncsc5c4)ncnc3c2)cn1 [Example 30, 2-((4-(benzo[d]thiazol-6-ylamino)-7-(1-methyl-1H-pyrazol-4-yl)quinazolin-5-yl)oxy)ethan-1-ol] | ≤ 10 | ≤ 10 | 10.1 to 50
3 | CN1CC[C@H](Nc2cc3c(Nc4ccc5ncsc5c4)ncnc3cc2-c2ccn(C)n2)[C@H](F)C1 (single isomer, unassigned) [Example A05, N4-(benzo[d]thiazol-6-yl)-N6-((3R,4S)-3-fluoro-1-methylpiperidin-4-yl)-7-(1-methyl-1H-pyrazol-3-yl)quinazoline-4,6-diamine or N4-(benzo[d]thiazol-6-yl)-N6-((3S,4R)-3-fluoro-1-methylpiperidin-4-yl)-7-(1-methyl-1H-pyrazol-3-yl)quinazoline-4,6-diamine] | ≤ 10 | ≤ 10 | ≤ 10
4 | CC(C)(O)Cn1cc(-c2cc(OC3CCOCC3)c3c(Nc4ccc5ncsc5c4)ncnc3c2)cn1 [Example 190, 1-(4-(4-(benzo[d]thiazol-6-ylamino)-5-((tetrahydro-2H-pyran-4-yl)oxy)quinazolin-7-yl)-1H-pyrazol-1-yl)-2-methylpropan-2-ol] | ≤ 10 | ≤ 10 | ≤ 10
5 | C[C@H](Oc1cc(-c2cnn(C)c2)cc2ncnc(Nc3ccc4ncsc4c3)c12)C1CC1 [Example 66, (S)-N-(5-(1-cyclopropylethoxy)-7-(1-methyl-1H-pyrazol-4-yl)quinazolin-4-yl)benzo[d]thiazol-6-amine] | ≤ 10 | ≤ 10 | ≤ 10
6 | CN1CC[C@H](Oc2cc(-c3cn(C)nc3OC(F)F)cc3ncnc(Nc4ccc5ncsc5c4)c23)[C@H](F)C1 [Example 367, N-(7-(3-(difluoromethoxy)-1-methyl-1H-pyrazol-4-yl)-5-(((3R,4S)-3-fluoro-1-methylpiperidin-4-yl)oxy)quinazolin-4-yl)benzo[d]thiazol-6-amine] | 10.1 to 50 | ≤ 10 | 10.1 to 50
7 | CO[C@H]1COC[C@@H]1Oc1cc(-c2cnn(C)c2)cc2ncnc(Nc3ccc4ncsc4c3)c12 (single isomer, unassigned) [Example A32] | 10.1 to 50 | ≤ 10 | 10.1 to 50
8 | C[C@@H](Oc1cc(N2CCN(C)CC2)cc2ncnc(Nc3ccc4ncsc4c3F)c12)[C@@H]1CCCO1 [Example 114, 7-fluoro-N-(7-(4-methylpiperazin-1-yl)-5-((R)-1-((S)-tetrahydrofuran-2-yl)ethoxy)quinazolin-4-yl)benzo[d]thiazol-6-amine] | ≤ 10 | ≤ 10 | 10.1 to 50
9 | COc1nn(C)cc1-c1cc(O[C@@H]2CCN(C)C[C@H]2F)c2c(Nc3ccc4ncsc4c3)ncnc2c1 (single isomer, unassigned) [Example 359] | ≤ 10 | ≤ 10 | 10.1 to 50
10 | CN(C)C[C@H](Oc1cc(-c2cnn(C)c2)cc2ncnc(Nc3ccc4ncsc4c3)c12)C(F)(F)F (single isomer, unassigned) [Example 178] | ≤ 10 | ≤ 10 | ≤ 10

— patent publication US20260207602A1, “EGFR INHIBITORS” (Blueprint Medicines Corporation, priority 2022, published 2026)
